Values of other authors in patent US20100323985A1, “PHARMACEUTICAL OR COSMETIC PREPARATIONS FOR TOPICAL AND/OR PARENTERAL APPLICATION, PREPARATION METHODS THEREOF AND USE OF SAME” (priority 2007, published 2010).

Columns and labels:
[1] = humans
[2] = in vivo

hyaluronic acid
excretion in the urine [1]: less than 1 % of total clearance | immunogenicity [2]: no immunogenicity | tolerance [2]: very good
